≈ marks a conversion by molar mass, not a printed value. Read-outs that look alike come from different tables or passages of the source.
Tests used:
Format in all cases: cell-based
[1] = system: mitochondrial protein synthesis in HepG2 cells; experiment: Mitochondrial protein synthesis assay (COX-I to SDH-A ratio, In Cell ELISA); conditions: Homo sapiens, HepG2, 96 h, 4 days, ratio of COX-I to SDH-A levels, read-out: MPS IC50
Procedure: Mitochondrial Protein Synthesis Assay
Inhibition of mitochondrial protein synthesis was assessed in HepG2 cells by comparing the levels of two subunits of oxidative phosphorylation enzyme complexes, subunit I of Complex IV (COX-I) and the 70 kDa subunit of Complex II (SDH-A). COX-I is mitochondrial DNA encoded and SDH-A is nuclear DNA encoded. HepG2 cells were seeded in 96-well collagen coated plates at 8,000 cells per well and exposed to 2-fold serial dilutions of compounds from 100 μM to 6.25 μM. Microtiter plates were incubated for approximately 5 replication cycles (4 days) prior to assessment of protein levels using a kit as described by the manufacturer (ab110217 MitoBiogenesis In Cell ELISA Kit, Abcam, Cambridge, MA). Inhibition of mitochondrial protein synthesis was expressed as a ratio of COX-1 to SDH-A levels.

[2] = system: Mycobacterium tuberculosis (Mtb-GFP; H37Rv pMSP12::GFP); experiment: microbe, parasite or virus in culture; conditions: 168 h, pH 6.8, read-out: Mtb Glu MITC95, glucose carbon source, pH 6.8, 7-day growth, GFP fluorescence, lowest concentration inhibiting 95% of growth
[3] = system: Mycobacterium tuberculosis (Mtb-GFP; H37Rv pMSP12::GFP); experiment: microbe, parasite or virus in culture; conditions: 168 h, pH 6.8, read-out: Mtb Cho MITC95, cholesterol carbon source, pH 6.8, 7-day growth, GFP fluorescence, lowest concentration inhibiting 95% of growth

SMILES	IC50 [1]	MIC [2]	MIC [3]
CN1CC(S(=O)(=O)c2ccc(-c3ccc(C4=NO[C@@H](CO)C4)cc3F)cc2)C1 [Example 13, [(5R)-3-[3-Fluoro-4-[4-(1-methylazetidin-3-yl)sulfonylphenyl]phenyl]-4,5-dihydroisoxazol-5-yl]methanol]	24 µM	1 µM (≈ 0.404 µg/mL)	1.2 µM (≈ 0.485 µg/mL)
N#Cc1ccc(-c2ccc(C3=NO[C@@H](COC(N)=O)C3)cc2F)cn1 [Example 20, {(5R)-3-[4-(6-Cyanopyridin-3-yl)-3-fluorophenyl]-4,5-dihydro-1,2-oxazol-5-yl}methyl carbamate]	7.2 µM	0.39 µM (≈ 0.133 µg/mL)	0.19 µM (≈ 0.0647 µg/mL)
CN1CC(C)(S(=O)(=O)c2ccc(-c3c(F)cc(C4=NO[C@@H](Cn5ccnn5)C4)cc3F)cn2)C1 [Example 24, 5-(2,6-Difluoro-4-{(5R)-5-[(1H-1,2,3-triazol-1-yl)methyl]-4,5-dihydro-1,2-oxazol-3-yl}phenyl)-2-(1,3-dimethylazetidine-3-sulfonyl)pyridine]	76 µM	3.12 µM (≈ 1.52 µg/mL)	3.12 µM (≈ 1.52 µg/mL)
CN=S1(=O)CCC(F)(c2c(F)cc(C3=NO[C@@H](CNC(C)=O)C3)cc2F)CC1 (stereo partly drawn) [Example 29, N-{[(5R)-3-{3,5-Difluoro-4-[4-fluoro-1-(methylimino)-1-oxo-1λ^6-thian-4-yl]phenyl}-4,5-dihydro-1,2-oxazol-5-yl]methyl}acetamide]	> 100 µM	1.56 µM (≈ 0.651 µg/mL)	1.56 µM (≈ 0.651 µg/mL)
